Data: patent EP0326331B1, “Substituted quinolines and cinnolines” (Dow AgroSciences LLC, priority 1988, dated 1989)

What was measured:
Format in all cases: in vivo
[1] = tested on: Erysiphe graminis tritici (powdery mildew); experiment: Test 1 greenhouse foliar spray screen, powdery mildew on wheat; conditions: Blumeria graminis, foliar, Test 1, foliar spray on wheat; disease control rating at 400 ppm / 100 ppm; read-out: POWD MDEW
[2] = tested on: Puccinia recondita tritici (leaf rust); experiment: Test 1 greenhouse foliar spray screen, leaf rust on wheat; conditions: Puccinia recondita, foliar, Test 1, foliar spray on wheat; disease control rating at 400 ppm / 100 ppm
[3] = tested on: corn rootworm; experiment: Mite/insect screen, CRW; conditions: percent mortality, read-out: CRW RESULTS %; for mortality at 12 ppm: CRW rate 12.00 ppm; for mortality at 24 ppm: CRW rate 24.00 ppm
Procedure, shortened: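 Each compound, taken up in an emulsifier-containing acetone/alcohol mixture and diluted in water to the stated concentrations, was assessed for percent kill following standard exposure times.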

[4] = tested on: melon aphids (Aphis gossypii Glover); experiment: Mite/insect screen, MA; conditions: Aphis gossypii, foliar, percent mortality, foliar spray on squash, read-out: MA RESULTS %; for mortality at 200 ppm: rate 200 ppm; for mortality at 400 ppm: rate 400 ppm
Procedure, shortened: (§1)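 Activity is expressed as percent mortality at the indicated spray concentrations. Plants are sprayed to runoff on upper and lower leaf surfaces with aqueous dilutions of an acetone/alcohol emulsifiable formulation, then dried for one hour.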

[5] = tested on: southern armyworm (Spodopetra eridania Cramer); experiment: Mite/insect screen, SAW; conditions: Spodoptera eridania, foliar, percent mortality, foliar spray on squash, read-out: SAW RESULTS %; for mortality at 200 ppm: rate 200 ppm; for mortality at 400 ppm: rate 400 ppm
Procedure, shortened: as §1

[6] = tested on: Pyricularia oryzae (rice blast); experiment: whole plant or invertebrate; conditions: Pyricularia oryzae, foliar, read-out: RICE BLAST, Test 1, foliar spray on rice; disease control rating at 400 ppm / 100 ppm
[7] = tested on: Pseudoperonospora cubensis (downy mildew); experiment: Test 1 greenhouse foliar spray screen, downy mildew on squash; conditions: Pseudoperonospora cubensis, foliar, Test 1, foliar spray on squash; disease control rating at 400 ppm / 100 ppm; read-out: DOWN MDEW
[8] = tested on: Twospotted spider mites (Tetranychus urticae Koch); experiment: Mite/insect screen, SM; conditions: Tetranychus urticae, foliar, percent mortality, foliar spray on squash, read-out: SM RESULTS %; for mortality at 200 ppm: rate 200 ppm; for mortality at 400 ppm: rate 400 ppm
Procedure, shortened: as §1

[9] = tested on: Botrytis cinerea (gray mold); experiment: Test 1 greenhouse foliar spray screen, gray mold on grape berries; conditions: Botrytis cinerea, foliar; Test 1, spray on grape berries; disease control rating at 400 ppm / 100 ppm

| SMILES | pest or weed control at 400 ppm [1] | pest or weed control at 400 ppm [2] | mortality at 12 ppm [3] | mortality at 24 ppm [3] | mortality at 200 ppm [4] | mortality at 400 ppm [4] | mortality at 200 ppm [5] | mortality at 400 ppm [5] | pest or weed control at 400 ppm [6] | pest or weed control at 400 ppm [7] | mortality at 200 ppm [8] | mortality at 400 ppm [8] | pest or weed control at 400 ppm [9] |
| --- | --- | --- | --- | --- | --- | --- | --- | --- | --- | --- | --- | --- | --- |
| OCCc1ccc(CCOc2ccnc3c(F)cccc23)cc1 [Example 265, 8-fluoro-4-[2-[4-(2-hydroxyethyl)phenyl]ethoxy]quinoline] | 0 to 19% | 90 to 100% | 0% | 0% | 0% | 0% | 0% | 0% | 90 to 100% | 0 to 19% | 0% | 0% | 0 to 19% |
| COC(C)CCOc1ccnc2c(F)cccc12 (stereo not shown) [Example 266, 8-fluoro-4-[3-methoxybutoxy]quinoline] | 0 to 19% | 0 to 19% | 0% | 0% | 0% | 0% | 0% | 0% | 0 to 19% | 0 to 19% | 0% | 0% | 0 to 19% |
| C=CCCCOc1ccnc2c(F)cccc12 [Example 267, 8-fluoro-4-(4-pentenoxy)quinoline] | 90 to 100% | 90 to 100% | 0% | 0% | 20% | 100% | 0% | 0% | 90 to 100% | 20 to 89% | 40% | 100% | 0 to 19% |
| Fc1cccc2c(NCCCCc3ccccc3)ccnc12 [Example 268, 8-fluoro-N-(4-phenylbutyl)-4-quinolinamine] | 20 to 89% | 90 to 100% | 0% | 0% | 0% | 0% | 0% | 0% | 90 to 100% | 90 to 100% | 0% | 80% | 0 to 19% |
| Fc1cccc2c(OCCc3ccccc3Cl)ccnc12 [Example 269, 4-[2-(2-chlorophenyl)ethoxy]-8-fluoroquinoline] | 90 to 100% | 90 to 100% | 0% | 40% | 30% | 0% | 0% | 0% | 90 to 100% | 90 to 100% |  | 0% | 0 to 19% |
| CCC(COc1ccnc2c(F)cccc12)c1ccc(-c2ccccc2)cc1 (stereo not shown) [Example 270, 4-[2-[1,1'-biphenyl]-4-ylbutoxy]-8-fluoroquinoline] | 0 to 19% | 0 to 19% | 0% | 0% | 0% | 0% | 20% | 0% | 20 to 89% | 0 to 19% | 0% | 80% | 0 to 19% |
| CC(C)(C)c1ccc(CCCNc2ccnc3c(F)cccc23)cc1 [Example 271, N-[3-[4-(t-butyl)phenyl]propyl]-8-fluoro-4-quinolinamine] | 0 to 19% | 20 to 89% | 0% | 0% | 0% | 0% | 0% | 0% | 90 to 100% | 90 to 100% | 0% | 0% | 0 to 19% |
| Fc1cccc2c(OCCCCOc3ccccc3)ccnc12 [Example 272, 8-fluoro-4-(4-phenoxybutoxy)quinoline] | 0 to 19% | 0 to 19% | 0% | 0% | 0% | 0% | 0% | 0% | 20 to 89% | 20 to 89% | 0% | 20% | 0 to 19% |
| CC(=O)Oc1ccc(CCN(C(C)=O)c2ccnc3c(F)cccc23)cc1 [Example 273, N-[2-(4-acetoxyphenyl)ethyl]-N-(8-fluoro-4-quinolinyl)acetamide] | 20 to 89% | 20 to 89% |  | 0% |  | 0% |  | 0% | 90 to 100% | 20 to 89% |  | 0% | 0 to 19% |
| CC(CCOc1ccnc2c(F)cccc12)CC(C)(C)C (stereo not shown) [Example 274, 8-fluoro-4-(3,5,5-trimethylhexyloxy)quinoline] | 90 to 100% | 90 to 100% | 0% | 0% | 100% | 100% | 0% | 0% | 90 to 100% | 20 to 89% | 100% | 0% | 0 to 19% |
| Fc1ccc(CCOc2ccnc3c(F)cccc23)c(F)c1 [Example 275, 8-fluoro-4-[2-(2,4-difluorophenyl)ethoxy]quinoline] | 90 to 100% | 90 to 100% | 0% | 0% | 90% | 100% | 0% | 0% | 90 to 100% | 90 to 100% | 0% | 60% | 0 to 19% |
| Fc1ccc(CCOc2ccnc3cc(Cl)ccc23)c(F)c1 [Example 276, 7-chloro-4-[2-(2,4-difluorophenyl)ethoxy]quinoline] | 90 to 100% | 20 to 89% | 0% | 0% | 0% | 80% | 0% | 0% | 0 to 19% | 0 to 19% | 0% | 60% | 0 to 19% |
| CCOc1ccc(CCOc2ccnc3cc(Cl)cc(Cl)c23)cc1 [Example 277, 5,7-dichloro-4-[2-(4-ethoxyphenyl)ethoxy]quinoline] | 90 to 100% | 0 to 19% |  | 0% |  | 0% |  | 0% | 0 to 19% | 0 to 19% |  | 0% | 0 to 19% |
